Measurements published in ChEMBL document CHEMBL4007480, “Synthesis of novel 1,2,4-triazine scaffold as FAK inhibitors with antitumor activity” (Bioorg Med Chem Lett, 2017).

Legend:
HCT-116 [1] = assay: Cytotoxicity against human HCT116 cells assessed as reduction in cell viability by WST1 assay
U-87 MG [2] = assay: Inhibition of colony formation in human U87MG cells
U-87 MG [3] = assay: Cytotoxicity against human U87MG cells assessed as reduction in cell viability by WST1 assay
U-87 MG [4] = details: Homo sapiens; U-87MG ATCC
HCT-116 [5] = assay: Inhibition of colony formation in human HCT116 cells

| SMILES | IC50 (HCT-116 [1]) [nM] | IC50 (U-87 MG [2]) [nM] | IC50 (U-87 MG [3]) [µM] | inhibition (U-87 MG [4]) | IC50 (HCT-116 [5]) [nM] |
| --- | --- | --- | --- | --- | --- |
| CNC(=O)c1ccccc1Nc1nc(Nc2cc(OC)c(OC)c(OC)c2)nnc1Cl | 14900 | 1700 | 17 | Dose-dependent effect | 2100 |
| COc1cc(Nc2nnc(Cl)c(Nc3cccc(NS(C)(=O)=O)c3)n2)cc(OC)c1OC | 14800 | 70 | 12.5 | Dose-dependent effect | 60 |
| CNC(=O)c1ccccc1Nc1nc(Nc2cc(C)c(Cl)cc2OC)nnc1Cl | 5800 | 500 | 9.2 | Dose-dependent effect | 4500 |
| CNC(=O)c1ccccc1Nc1nc(Nc2ccc(N3CCOCC3)cc2OC)nnc1Cl | 190 | 1500 | 13.3 | Dose-dependent effect | 1000 |
| CNC(=O)c1ccccc1Nc1nc(Nc2ccc(N3CCOCC3)cc2)nnc1Cl | 500 | 700 | 10.1 | Dose-dependent effect | 1700 |
| CNC(=O)c1ccccc1Nc1nc(Nc2ccc(N3CCOCC3)cc2OC)ncc1Cl | 390 | 170 | 1.3 | – | 270 |
| CNC(=O)c1ccccc1Nc1nc(Nc2ccc(CN)cc2)nnc1Cl | 1800 | 14 | 2.4 | Dose-dependent effect | 1100 |
